Results: PubChem BioAssay (NCI)
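96-well plates; 48 h exposure; 5 concentrations. Endpoints by linear interpolation between flanking doses. Not reached: highest tested concentration assigned. Definition used: TGI = concentration required for complete inhibition of growth.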

Experiments:
Experiment in all cases: inhibition of tumour cell growth, NCI panel, 48 h
[1] = test system: LOX IMVI melanoma
[2] = test system: SW-620 colon
[3] = test system: NCI-H460 lung
[4] = test system: 786-0 renal
[5] = test system: HOP-62 NSCLC
[6] = test system: RXF 393 renal
[7] = test system: DMS 273 small cell lung
[8] = test system: HOP-18 NSCLC
[9] = test system: SR leukemia
[10] = test system: NCI-H23 lung
[11] = test system: TK-10 renal
[12] = test system: NCI-H226 lung
[13] = test system: OVCAR-8 ovarian
[14] = test system: OVCAR-3 ovarian
[15] = test system: SNB-19 CNS
[16] = test system: SF-295 CNS
[17] = test system: U251 CNS
[18] = test system: UACC-257 melanoma
[19] = test system: UO-31 renal
[20] = test system: RPMI-8226 leukemia
[21] = test system: SF-268 CNS
[22] = test system: SF-539 CNS
[23] = test system: SNB-78 CNS
[24] = test system: HT29 colon
[25] = test system: XF 498 CNS
[26] = test system: KM20L2 colon
[27] = test system: SK-MEL-2 melanoma
[28] = test system: MALME-3M melanoma
[29] = test system: SNB-75 CNS
[30] = test system: OVCAR-5 ovarian
[31] = test system: COLO 205 colon
[32] = test system: HCT-116 colon
[33] = test system: LXFL 529 NSCLC
[34] = test system: HCT-15 colon
[35] = test system: SK-MEL-28 melanoma
[36] = test system: HOP-92 NSCLC
[37] = test system: SN12C renal
[38] = test system: UACC-62 melanoma
[39] = test system: HCC-2998 colon
[40] = test system: SK-OV-3 ovarian
[41] = test system: M19-MEL melanoma
[42] = test system: DLD-1 colon
[43] = test system: A549 NSCLC
[44] = test system: MOLT-4 leukemia
[45] = test system: ACHN renal
[46] = test system: HL-60(TB) leukemia
[47] = test system: CCRF-CEM leukemia
[48] = test system: EKVX NSCLC
[49] = test system: DMS 114 small cell lung
[50] = test system: IGROV1 ovarian
[51] = test system: KM12 colon
[52] = test system: K-562 leukemia
[53] = test system: OVCAR-4 ovarian
[54] = test system: NCI-H522 lung
[55] = test system: A498 renal
[56] = test system: M14 melanoma
[57] = test system: SK-MEL-5 melanoma
[58] = test system: CAKI-1 renal

Measured: TGI

COc1cc(Nc2nc3ccccc3nc2-c2cccs2)cc(OC)c1OC
> 10 µM: [13] | [17] | [19] | [31]
76.6 µM: [25]
83.9 µM: [36]
not listed: [49] | [50] | [51] | [52] | [53] | [54] | [55] | [56] | [57] | [58]
> 100 µM: all other assays above

C[C@@H]1OC(=O)N2CCCC(=C3SCCCS3)C12 (stereo partly drawn)
84.9 µM: [36]
not listed: [5] | [9] | [39] | [42] | [46] | [57] | [58]
> 100 µM: all other assays above

NC12CC3CC(C1)CC(C(=O)O)(C3)C2
not listed: [6] | [12] | [27] | [28] | [31]
> 100 µM: all other assays above

CC(C)(C)c1cc(CCC(=O)Nc2ccc(Cl)cc2)nc(NC#N)n1
not listed: [6] | [9] | [20] | [25] | [28] | [29] | [37] | [39] | [49] | [54] | [55] | [57]
> 100 µM: all other assays above
